According to patent US20220378706A1, “PHARMACEUTICAL COMPOSITION COMPRISING PDE9 INHIBITOR” (Eisai R&D Management Co., Ltd., priority 2017, published 2022):
Where two headings read alike, the source gives them in different places.

How the values were obtained:
[1] = Single dose clinical study Parts A and C: urine Compound A pharmacokinetics; type: in vivo, human; settings: for CL renal: human, po
Description: Urine Compound A concentrations were analyzed predose and up to 96 hours postdose.
(§1) Plasma, urine and CSF concentrations of Compound A were measured using validated liquid chromatography mass spectrometry/mass spectrometry (LC MS/MS) assay methods. CSF concentrations of cGMP were measured using a validated LC-MS/MS assay method.
The following PK parameters were calculated for Compound A: […]

[2] = test system: cGMP in the cerebrospinal fluid; assay: CSF cGMP elevation in rats; type: in vivo; settings: rat, scopolamine
Description: cGMP in the cerebrospinal fluid (hereinafter referred to as “CSF cGMP”) elevation in each sample was measured according to the method described in WO2013/051639.

[3] = High precision QTcF analysis using Holter ECG recording; type: in vivo, human; settings: at the Cmax at the highest doses of 800 to 1200 mg, healthy subjects
Description: In addition, high precision QTcF analysis using Holter ECG recording was conducted in Parts A, C, and D during Day −1 and Day 1, to allow more rigorous assessments of possible changes in QTcF intervals. A central ECG laboratory was used to extract ECG recordings from the Holter device.

[4] = Single dose clinical study Part B: CSF Compound A pharmacokinetics; type: in vivo; settings: human
Description: After the Screening Period, subjects returned to the clinic on […] for Baseline procedures. […] Serial CSF sampling via the lumbar catheter commenced on Day 1, after an overnight fast. CSF samples were collected on Day 1 over a period of 3 hours predose. Subjects were then administered study drug, and serial CSF sampling for 30 hours postdose was performed to determine CSF cGMP and CSF Compound A concentrations. Blood samples for plasma Compound A PK were collected at the same time points as CSF sampling. Safety evaluations were also performed.
Concentrations of Compound A in CSF were analyzed in serial CSF samples collected at predose and postdose at 1, 2, 3, 4, 5, 6, 8, 10, 12, 14, 16, 18, 24, and 30 hours.
as §1
The following PK parameters were derived by noncompartmental analysis using CSF Compound A concentrations: […]

[5] = Elderly subjects Part C, single oral 100 mg
[6] = healthy adults Part A, single oral 10 mg
[7] = healthy adults Part A, single oral 25 mg
[8] = healthy adults Part A, single oral 50 mg
[9] = healthy adults Part A, single oral 100 mg
[10] = healthy adults Part A, single oral 200 mg
[11] = healthy adults Part A, single oral 400 mg
[12] = healthy adults Part A, single oral 800 mg
[13] = healthy adults Part A, single oral 1200 mg

In the case of COc1ncc(C)c(-c2ccc3c(c2)[nH]c(=O)c2cnn([C@H]4CCOC4)c23)c1C [Compound A, (S)-7-(2-methoxy-3,5-dimethylpyridin-4-yl)-1-(tetrahydrofuran-3-yl)-1H-pyrazolo[4,3-c]quin olin-4(5H)-one], the “Ae(0-96 h) GM” value [1, 5] is reported as 0.228 mg, the “Fe(0-96 h) GM” value [1, 5] is reported as 0.228% and the “Ae(0-96 h) GM” value [1, 6] is reported as 0.0218 mg. The “Fe(0-96 h) GM” value [1, 6] was 0.218%, the “Ae(0-96 h) GM” value [1, 7] was 0.0476 mg and the “Fe(0-96 h) GM” value [1, 7] was 0.190%. For the same compound, the “Ae(0-96 h) GM” value [1, 8] was 0.104 mg, the “Fe(0-96 h) GM” value [1, 8] was 0.208% and the “Ae(0-96 h) GM” value [1, 9] was 0.295 mg. For the same compound, the “Fe(0-96 h) GM” value [1, 9] was 0.295%, the “Ae(0-96 h) GM” value [1, 10] was 0.177 mg and the “Fe(0-96 h) GM” value [1, 10] was 0.0885%. The “Ae(0-96 h) GM” value [1, 11] was 0.615 mg, the “Fe(0-96 h) GM” value [1, 11] was 0.154% and the “Ae(0-96 h) GM” value [1, 12] was 0.762 mg. The “Fe(0-96 h) GM” value [1, 12] was 0.0953%, the “Ae(0-96 h) GM” value [1, 13] was 1.18 mg and the “Fe(0-96 h) GM” value [1, 13] was 0.0979%. For the same compound, the CL renal ([1]; 10 mg, healthy adults Part A, single oral 10 mg) was 0.228 mL/min, the CL renal ([1]; 25 mg, healthy adults Part A, single oral 25 mg) was 0.202 mL/min and the CL renal ([1]; 50 mg, healthy adults Part A, single oral 50 mg) was 0.268 mL/min. It also gave a CL renal ([1]; 100 mg, Elderly subjects Part C, single oral 100 mg) of 0.22 mL/min, a CL renal ([1]; 100 mg, healthy adults Part A, single oral 100 mg) of 0.37 mL/min and a CL renal ([1]; 200 mg, healthy adults Part A, single oral 200 mg) of 0.17 mL/min. For the same compound, the CL renal ([1]; 400 mg, healthy adults Part A, single oral 400 mg) was 0.337 mL/min, the CL renal ([1]; 800 mg, healthy adults Part A, single oral 800 mg) was 0.212 mL/min and the CL renal ([1]; 1200 mg, healthy adults Part A, single oral 1200 mg) was 0.287 mL/min. The “% CSF cGMP increase from vehicle control” value ([2]; 3.3 mg/kg oral) was “(90) %”, the “CSF cGMP conc.” value ([2]; 3.3 mg/kg oral) was 3.694 ± 0.65 nM and the “% CSF cGMP increase from vehicle control” value ([2]; 10 mg/kg oral) was “(152) %”. For the same compound, the “CSF cGMP conc.” value ([2]; 10 mg/kg oral) was 4.889 ± 0.538 nM, the “upper 90% CI of the ΔΔQTcF” value [3] was “less than 10 ms” and the Kp ([4]; CSF and plasma, oral, 50 to 400 mg, read-out: GM ratios of CSF AUC(0-t) to plasma AUC(0-t) across doses) was 0.0241 to 0.028. It also gave a Kp ([4]; CSF and plasma, oral, 50 to 400 mg, read-out: GM ratios of CSF Cmax to plasma Cmax across doses) of 0.02 to 0.0277, a Kp ([4]; CSF and plasma, po, 50 mg, healthy adults Part B, single oral 50 mg, fasted, read-out: CSF: plasma Cmax ratio (expressed as %) GM (% CV)) of 0.02 and a Kp ([4]; CSF and plasma, po, 75 mg, healthy adults Part B, single oral 75 mg, fasted, from AUC (0-t) or AUC (0-30 h), read-out: CSF: plasma AUC ratio (expressed as %) GM (% CV)) of 0.0264. The Kp ([4]; CSF and plasma, po, 75 mg, healthy adults Part B, single oral 75 mg, fasted, read-out: CSF: plasma Cmax ratio (expressed as %) GM (% CV)) was 0.0264, the Kp ([4]; CSF and plasma, po, 100 mg, healthy adults Part B, single oral 100 mg, fasted, from AUC (0-t) or AUC (0-30 h), read-out: CSF: plasma AUC ratio (expressed as %) GM (% CV)) was 0.0266 and the Kp ([4]; CSF and plasma, po, 100 mg, healthy adults Part B, single oral 100 mg, fasted, read-out: CSF: plasma Cmax ratio (expressed as %) GM (% CV)) was 0.0194. It also gave a Kp ([4]; CSF and plasma, po, 200 mg, healthy adults Part B, single oral 200 mg, fasted, from AUC (0-t) or AUC (0-30 h), read-out: CSF: plasma AUC ratio (expressed as %) GM (% CV)) of 0.0238, a Kp ([4]; CSF and plasma, po, 200 mg, healthy adults Part B, single oral 200 mg, fasted, read-out: CSF: plasma Cmax ratio (expressed as %) GM (% CV)) of 0.0214 and a Kp ([4]; CSF and plasma, po, 400 mg, healthy adults Part B, single oral 400 mg, fasted, from AUC (0-t) or AUC (0-30 h), read-out: CSF: plasma AUC ratio (expressed as %) GM (% CV)) of 0.0279. It also gave a Kp ([4]; CSF and plasma, po, 400 mg, healthy adults Part B, single oral 400 mg, fasted, read-out: CSF: plasma Cmax ratio (expressed as %) GM (% CV)) of 0.0203, a Kp ([4]; CSF, oral, 50 to 400 mg, read-out: mean CSF:plasma ratios (expressed as percentages) of Cmax or AUC(0-t)) of 0.02 to 0.03 and a Tmax ([4]; CSF, oral, single doses (50 to 400 mg except 50 mg; b332: 100 to 400 mg), read-out: median CSF tmax across doses) of 4.37 to 6.87 h. For the same compound, the Tmax ([4]; CSF, healthy adults Part B, single oral 50 mg, fasted, read-out: CSF tmax Median) was 11.9 h, the Tmax ([4]; CSF, healthy adults Part B, single oral 75 mg, fasted, read-out: CSF tmax Median) was 5.37 h and the Tmax ([4]; CSF, healthy adults Part B, single oral 100 mg, fasted, read-out: CSF tmax Median) was 6.87 h. For the same compound, the Tmax ([4]; CSF, healthy adults Part B, single oral 200 mg, fasted, read-out: CSF tmax Median) was 4.37 h and the Tmax ([4]; CSF, healthy adults Part B, single oral 400 mg, fasted, read-out: CSF tmax Median) was 5.37 h.
